Here are results for eight compounds from ChEMBL document CHEMBL1134707, “Orally active docetaxel analogue: synthesis of 10-deoxy-10-C-morpholinoethyl docetaxel analogues” (2001).

Assay [1] has as its system PC-6. The assay can be described thus: Cytotoxic activity against PC-6 human small cell lung cancer. It counts as functional.
The subject of assay [2] is PC-12. As to the kind of experiment: Cytotoxic activity against PC-12 human non-small cell lung cancer cell line.
The subject of assay [3] is PC-6. The assay can be described thus: Cytotoxic activity against PC-6/VCR29-9 vincristine resistant cell line expressing P-gp. It counts as functional. Particulars: Homo sapiens.
Assay [4] concerns PC-12. As to the kind of experiment: Cytotoxic activity against PC-12 human non-small cell lung cancer cell line. In kind it is functional. Particulars: Rattus norvegicus.
Assay [5] relates to Mus musculus. The assay can be described thus: Antitumor activity against B16 melanoma at dose of 75 mg/kg by iv administration in mice and mortality rate is reported. It counts as functional.
Assay [6] deals with Mus musculus. As to the kind of experiment: Antitumor activity against B16 melanoma in mice at dose of 22.2 mg/kg by iv administration and body weight loss is reported. In kind it is functional.
In assay [7] the test system is Mus musculus. The assay can be described thus: Antitumor activity against B16 melanoma in mice at dose of 50 mg/kg by po administration and IR value is reported. It counts as functional.
The test system of assay [8] is Mus musculus. As to the kind of experiment: Antitumor activity against B16 melanoma in mice at dose of 22.2 mg/kg by po administration and IR value is reported. In kind it is functional.
Assay [9] deals with Mus musculus. As to the kind of experiment: Antitumor activity against B16 melanoma at dose of 100 mg/kg by iv administration in mice and mortality rate is reported. It counts as functional.
Assay [10] relates to Mus musculus. The assay can be described thus: Antitumor activity against B16 melanoma in mice at dose of 33.3 mg/kg by po administration and body weight loss is reported. It counts as functional.
For assay [11], the system named is Mus musculus. As to the kind of experiment: Antitumor activity against B16 melanoma at dose of 75 mg/kg by po administration in mice and mortality rate is reported. In kind it is functional.
Assay [12] has as its system Mus musculus. As to the kind of experiment: Antitumor activity against B16 melanoma in mice at dose of 33.3 mg/kg by po administration and IR value is reported. It counts as functional.
Assay [13] has as its system Mus musculus. As to the kind of experiment: Antitumor activity against B16 melanoma in mice at dose of 112.5 mg/kg by po administration and body weight loss is reported. In kind it is functional.
Assay [14] has as its system Mus musculus. As to the kind of experiment: Antitumor activity against B16 melanoma in mice at dose of 75 mg/kg by po administration and body weight loss is reported. In kind it is functional.
Assay [15] deals with Mus musculus. The assay can be described thus: Antitumor activity against B16 melanoma in mice at dose of 75 mg/kg by iv administration and IR value is reported. It counts as functional.
Assay [16] relates to Mus musculus. The assay can be described thus: Antitumor activity against B16 melanoma in mice at dose of 50 mg/kg by po administration and body weight loss is reported. It counts as functional.
Assay [17] deals with Mus musculus. As to the kind of experiment: Antitumor activity against B16 melanoma in mice at dose of 112.5 mg/kg by po administration and IR value is reported. It counts as functional.
The test system of assay [18] is Mus musculus. The assay can be described thus: Antitumor activity against B16 melanoma in mice at dose of 22.2 mg/kg by iv administration and IR value is reported. In kind it is functional.
Assay [19] concerns Mus musculus. As to the kind of experiment: Antitumor activity against B16 melanoma in mice at dose of 33.3 mg/kg by iv administration and IR value is reported. It counts as functional.
The test system of assay [20] is Mus musculus. The assay can be described thus: Antitumor activity against B16 melanoma in mice at dose of 22.2 mg/kg by po administration and body weight loss is reported. It counts as functional.
The test system of assay [21] is Mus musculus. As to the kind of experiment: Antitumor activity against B16 melanoma at dose of 50 mg/kg by po administration in mice and mortality rate is reported. It counts as functional.
The test system of assay [22] is Mus musculus. The assay can be described thus: Antitumor activity against B16 melanoma at dose of 33.3 mg/kg by po administration in mice and mortality rate is reported. It counts as functional.
The subject of assay [23] is Mus musculus. The assay can be described thus: Antitumor activity against B16 melanoma in mice at dose of 50 mg/kg by iv administration and IR value is reported. It counts as functional.
Assay [24] concerns Mus musculus. The assay can be described thus: Antitumor activity against B16 melanoma in mice at dose of 50 mg/kg by iv administration and body weight loss is reported. In kind it is functional.
Assay [25] has as its system Mus musculus. As to the kind of experiment: Antitumor activity against B16 melanoma at dose of 33.3 mg/kg by iv administration in mice and mortality rate is reported. In kind it is functional.
Assay [26] relates to Mus musculus. As to the kind of experiment: Antitumor activity against B16 melanoma at dose of 112.5 mg/kg by po administration in mice and mortality rate is reported. In kind it is functional.
For assay [27], the system named is Mus musculus. As to the kind of experiment: Antitumor activity against B16 melanoma in mice at dose of 75 mg/kg by iv administration and body weight loss is reported. It counts as functional.
Assay [28] has as its system Mus musculus. As to the kind of experiment: Antitumor activity against B16 melanoma in mice at dose of 33.3 mg/kg by iv administration and body weight loss is reported. It counts as functional.
Assay [29] relates to Mus musculus. The assay can be described thus: Antitumor activity against B16 melanoma at dose of 22.2 mg/kg by po administration in mice and mortality rate is reported. It counts as functional.
The subject of assay [30] is Mus musculus. As to the kind of experiment: Antitumor activity against B16 melanoma in mice at dose of 75 mg/kg by po administration and IR value is reported. It counts as functional.
Assay [31] has as its system Mus musculus. As to the kind of experiment: Antitumor activity against B16 melanoma at dose of 50 mg/kg by iv administration in mice and mortality rate is reported. In kind it is functional.
Assay [32] deals with Mus musculus. As to the kind of experiment: Antitumor activity against B16 melanoma in mice at dose of 600 mg/kg by po administration and IR value is reported. In kind it is functional.
For assay [33], the system named is Mus musculus. The assay can be described thus: Antitumor activity against B16 melanoma at dose of 600 mg/kg by po administration in mice and mortality rate is reported. It counts as functional.
The test system of assay [34] is Mus musculus. The assay can be described thus: Antitumor activity against B16 melanoma in mice at dose of 100 mg/kg by iv administration and body weight loss is reported. It counts as functional.
Assay [35] deals with Mus musculus. The assay can be described thus: Antitumor activity against B16 melanoma in mice at dose of 600 mg/kg by po administration and body weight loss is reported. It counts as functional.
Assay [36] relates to Mus musculus. As to the kind of experiment: Antitumor activity against B16 melanoma in mice at dose of 100 mg/kg by iv administration and IR value is reported. It counts as functional.

Values after ≈ are worked out from the molar mass of the structure shown. Bounds are passed on as bounds.

What is called GI50 is the concentration giving 50% growth inhibition. Read a high GI50 as less potent growth inhibition. `CC(=O)O[C@@]12CO[C@@H]1C[C@@H](F)[C@@]1(C)C(=O)[C@H](CCN3CCOCC3)C3=C(C)[C@@H](OC(=O)[C@H](O)[C@@H](NC(=O)OC(C)(C)C)c4ccccc4)C[C@@](O)([C@@H](OC(=O)c4ccccc4)C12)C3(C)C` (some centres not stated): the values for the GI50 in the assay on PC-6 [1], with PC-12 [2] and in the assay on PC-6 [3] were 0.379 ng/mL (≈ 0.418 nM), 2.55 ng/mL (≈ 2.81 nM) and 16.2 ng/mL (≈ 17.9 nM), respectively.
Regarding `CC(=O)O[C@@]12CO[C@@H]1C[C@H](O)[C@@]1(C)C(=O)[C@H](CCN3CCOCC3)C3=C(C)[C@@H](OC(=O)[C@H](O)[C@@H](NC(=O)OC(C)(C)C)c4ccccc4)C[C@@](O)([C@@H](OC(=O)c4ccccc4)[C@H]21)C3(C)C`, the GI50 stood at 1.72 ng/mL (≈ 1.9 nM) in the assay with PC-6 [1], 21.5 ng/mL (≈ 23.8 nM) in the assay with PC-12 [2] and 76.3 ng/mL (≈ 84.3 nM) with PC-6 [3].
Take `CC(=O)O[C@@]12CO[C@@H]1C[C@H](OCF)C1(C)C(=O)[C@H](CCN3CCOCC3)C3=C(C)[C@@H](OC(=O)[C@H](O)[C@@H](NC(=O)OC(C)(C)C)c4ccccc4)C[C@@](O)([C@@H](OC(=O)c4ccccc4)C12)C3(C)C` (some centres not stated): the results for the GI50 in the assay with PC-12 [4], in the assay on PC-6 [1] and in the assay with PC-6 [3] were 1.5 ng/mL (≈ 1.6 nM), 0.246 ng/mL (≈ 0.263 nM) and 40.4 ng/mL (≈ 43.1 nM), respectively.
In the case of `CC(=O)O[C@@]12CO[C@@H]1C=C[C@@]1(C)C(=O)[C@H](CCN3CCOCC3)C3=C(C)[C@@H](OC(=O)[C@H](O)[C@@H](NC(=O)OC(C)(C)C)c4ccccc4)C[C@@](O)([C@@H](OC(=O)c4ccccc4)C12)C3(C)C` (some centres not stated), the GI50 in the assay on PC-6 [1] was 0.5 ng/mL (≈ 0.564 nM); with PC-12 [2], 0.824 ng/mL (≈ 0.929 nM); with PC-6 [3] it was 18 ng/mL (≈ 20.3 nM).
The corresponding values for `CC(=O)O[C@@]12CO[C@@H]1CC[C@@]1(C)C(=O)[C@H](CCN3CCOCC3)C3=C(C)[C@@H](OC(=O)[C@H](O)[C@@H](NC(=O)OC(C)(C)C)c4ccccc4)C[C@@](O)([C@@H](OC(=O)c4ccccc4)C12)C3(C)C` (some centres not stated) are 0.761 ng/mL (≈ 0.856 nM), 1.47 ng/mL (≈ 1.65 nM) and 20.4 ng/mL (≈ 22.9 nM).
`CO[C@H]1C[C@H]2OC[C@@]2(OC(C)=O)[C@H]2[C@H](OC(=O)c3ccccc3)[C@]3(O)C[C@H](OC(=O)[C@H](O)[C@@H](NC(=O)OC(C)(C)C)c4ccccc4)C(C)=C([C@@H](CCN4CCOCC4)C(=O)[C@]12C)C3(C)C`: the Mortality worked out at 5 in the assay with Mus musculus [5]; 0 in the assay on Mus musculus [9]; 0 in the assay with Mus musculus [11]; 0 in the assay on Mus musculus [21]; 0 in the assay on Mus musculus [22]; 0 with Mus musculus [25]. Further, the values for the Mortality in the assay with Mus musculus [26], with Mus musculus [29] and in the assay with Mus musculus [31] were 4, 0 and 0, respectively. The BWL was 5.7% in the assay with Mus musculus [6]; 0.9% in the assay with Mus musculus [10]; below 20% with Mus musculus [13]; 5% in the assay on Mus musculus [14]; below 1.7% in the assay with Mus musculus [16]; below 0% in the assay on Mus musculus [20]. Also, the BWL stood at 18% with Mus musculus [24], 19.2% in the assay with Mus musculus [27] and 9.4% with Mus musculus [28]. The IR was found to be 96.2% in the assay on Mus musculus [7]; 81.7% in the assay with Mus musculus [8]; 82.8% with Mus musculus [12]; 99.4% in the assay on Mus musculus [15]; 99% in the assay on Mus musculus [17]; 93.7% in the assay on Mus musculus [18]. For the same compound, the IR with Mus musculus [19] turned out to be 94.4%; in the assay on Mus musculus [23], 98.6%; in the assay on Mus musculus [30] it was 98.3%. Moreover, the GI50 in the assay with PC-6 [1] came to 0.266 ng/mL (≈ 0.289 nM); with PC-12 [2], 0.756 ng/mL (≈ 0.823 nM); in the assay on PC-6 [3], 9.01 ng/mL (≈ 9.8 nM).
As for `CC(=O)O[C@@]12CO[C@@H]1CC1C[C@@]13C(=O)[C@H](CCN1CCOCC1)C1=C(C)[C@@H](OC(=O)[C@H](O)[C@@H](NC(=O)OC(C)(C)C)c4ccccc4)C[C@@](O)([C@@H](OC(=O)c4ccccc4)C32)C1(C)C` (some centres not stated), the GI50 in the assay with PC-6 [1] was 0.873 ng/mL (≈ 0.984 nM); in the assay on PC-12 [2] it was 3.56 ng/mL (≈ 4.01 nM); with PC-6 [3], 38.6 ng/mL (≈ 43.5 nM).
As to `CC(=O)O[C@@]12CO[C@@H]1C[C@H](O)[C@@]1(C)C(=O)[C@H](O)C3=C(C)[C@@H](OC(=O)[C@H](O)[C@@H](NC(=O)OC(C)(C)C)c4ccccc4)C[C@@](O)([C@@H](OC(=O)c4ccccc4)[C@H]21)C3(C)C.O.O.O` [DOCETAXEL], the Mortality in the assay on Mus musculus [9] and in the assay with Mus musculus [33] was 0 in each case. In addition, the IR with Mus musculus [32] is 6.2%; in the assay with Mus musculus [36], 95.1%. For the same compound, the BWL in the assay on Mus musculus [34] and in the assay on Mus musculus [35] was below 0% each time. For the same compound, the GI50 in the assay on PC-6 [1] worked out at 0.408 ng/mL; with PC-12 [2] it was 11.7 ng/mL; in the assay with PC-6 [3] it was 39.6 ng/mL.
